Measured values published in US9233920B2, “Process for the preparation of dihydropyrrole derivatives” (Syngenta Participations AG, priority 2010, dated 2016).

Assays:
Format in all cases: in vivo
Heliothis virescens = Heliothis virescens (tobacco budworm) egg/larval test on artificial diet in 24-well microtiter plate; conditions: Heliothis virescens eggs 0-24 h old, 4 days incubation, egg mortality, larval mortality, growth regulation
Procedure: (§1) These examples illustrate the comparative insecticidal and acaricidal properties of compounds A23 and A24. The tests were performed as follows:
Heliothis virescens (Tobacco Budworm):
Eggs (0-24 h old) were placed in 24-well microtiter plate on artificial diet and treated with test solutions at an application rate of 12.5 ppm (concentration in well 18 ppm) by pipetting. After an incubation period of 4 days, samples were checked for egg mortality, larval mortality, and growth regulation.

Diabrotica balteata = Diabrotica balteata (corn root worm) L2 larvae test on artificial diet in 24-well microtiter plate; conditions: 5 days incubation, larval mortality and growth regulation
Procedure: as §1
Diabrotica balteata (Corn Root Worm):
A 24-well microtiter plate (MTP) with artificial diet was treated with test solutions at an application rate of 12.5 ppm (concentration in well 18 ppm) by pipetting. After drying, the MTP's were infested with L2 larvae (6-10 per well). After an incubation period of 5 days, samples were checked for larval mortality and growth regulation.

Thrips tabaci = Thrips tabaci (onion thrips) sunflower leaf disc spray test; conditions: Thrips tabaci mixed ages on sunflower leaf discs, 7 days incubation, mortality
Procedure: as §1
Thrips tabaci (Onion Thrips):
[…] After drying, the leaf discs were infested with an […] population of mixed ages. After an incubation period of 7 days, samples were checked for mortality.

SMILES | % Control at 12.5 ppm (Heliothis virescens) | % Control at 200 ppm (Heliothis virescens) | % Control at 12.5 ppm (Diabrotica balteata) | % Control at 200 ppm (Diabrotica balteata) | % Control at 12.5 ppm (Thrips tabaci) | % Control at 200 ppm (Thrips tabaci)
Cc1cc(C2=NC[C@@](c3cc(Cl)cc(Cl)c3)(C(F)(F)F)C2)ccc1C(=O)NC1CS(=O)(=O)C1 [Compound A23, 4-[(3R)-3-(3,5-dichlorophenyl)-3-(trifluoromethyl)-2,4-dihydropyrrol-5-yl]-N-(1,1-dioxothietan-3-yl)-2-methyl-benzamide] | 100% | 100% | 100% | 100% | 100% | 100%
Cc1cc(C2=NC[C@](c3cc(Cl)cc(Cl)c3)(C(F)(F)F)C2)ccc1C(=O)NC1CS(=O)(=O)C1 [Compound A24, 4-[(3S)-3-(3,5-dichlorophenyl)-3-(trifluoromethyl)-2,4-dihydropyrrol-5-yl]-N-(1,1-dioxothietan-3-yl)-2-methyl-benzamide] | 50% | 100% | 0% | 100% | 40% | 100%
